Data: patent US5362906A, “Farnesyl pyrophosphate analogs” (Merck & Co., Inc., priority 1993, dated 1994)

Biological target: T1, Farnesyl-protein transferase (Bos taurus, UniProt P29702+P49355)
T1 construct: Farnesyl-protein transferase from bovine brain; from tissue; host or cells: bovine brain, partially purified (DEAE-Sephacel, N-octyl agarose, mono Q HPLC)
Assay: Inhibition of Ras farnesylation in vitro by farnesyl-protein transferase (FTase)
Format: biochemical
Settings: partially purified bovine brain FTase; Ras-CVLS 3.5 μM, [3H]FPP 0.25 μM; averages of 2-5 determinations
Procedure: The farnesyl pyrophosphate analog compounds of this invention were tested as follows for their ability to inhibit Ras farnesylation in vitro. Farnesyl-protein transferase from bovine brain was chromatographed on DEAE-Sephacel (Pharmacia, 0-0.8M NaCl gradient elution), N-octyl agarose (Sigma, 0-0.6M NaCl gradient elution), and a mono Q HPLC column (Pharmacia, 0-0.3M NaCl gradient). Ras-CVLS at 3.5 μM, 0.25 μM [^3 H]FPP, and the indicated compounds were incubated with this partially purified enzyme preparation.
The FTase data presented above are the averages of 2-5 determinations and reflect the ability of the test compounds to inhibit Ras farnesylation in vitro.

Compound | IC50 [µM]
CC(C)=CCC/C(C)=C/CC/C(C)=C/CNC(=O)CP(=O)(O)O [Scheme 5, [2-[(E,E)-3,7,11-Trimethyl-2,6,10-dodecatrienylamino]-2-oxo-ethyl]phosphonic acid] | 0.044
[2-[(E,E)-3,7,11-Trimethyl-2,6,10-dodecatrienylamino]-2-oxo-ethyl]phosphonic acid monomethyl ester, potassium salt [Scheme 8] | 100
CC(=O)C(C/C=C(\C)CC/C=C(\C)CCC=C(C)C)P(=O)(O)O (stereo not drawn) [Scheme 4, [1-Acetyl-4,8,12-trimethyltrideca-3,7,11-trienyl]phosphonic acid] | 21
CC(C)=CCC/C(C)=C/CC/C(C)=C/CCC(=O)CP(=O)(O)O [Scheme 2, [2-Oxo-6,10,14-trimethylpentadeca-5,9,13-trienyl]phosphonic acid] | 62
CC(C)=CCC/C(C)=C/CC/C(C)=C/CCC(O)CP(=O)(O)O (stereo not drawn) [Scheme 3, [2-Hydroxy-6,10,14-trimethylpentadeca-5,9,13-trienyl]phosphonic acid] | 100
CC(C)=CCC/C(C)=C/CC/C(C)=C/CCSCP(=O)(O)O [Scheme 6, [(E,E)-4,8,12-trimethyl-3,7,11-tridecatrienyl]thiomethyl-phosphonic acid] | 100
CC(C)=CCC/C(C)=C/CC/C(C)=C/CCC(O)CC(=O)O (stereo not drawn) [Scheme 1, 3-Hydroxy-7,11,15-trimethylhexadeca-6,10,14-trienoic acid] | 310
[1-Hydroxy-(E,E)-4,8,12-trimethyl-3,7,11-tridecatrienyl]phosphonic acid [Scheme 12] | 42

Test system: Ras farnesylation
Assay: not given
Settings: Hancock et al., Casey et al., Schafer et al.; cited from earlier work

Compound | Inhibition of Ras farnesylation in vivo
CC[C@H](C)C(=O)O[C@H]1C[C@@H](C)C=C2C=C[C@H](C)[C@H](CC[C@@H]3C[C@@H](O)CC(=O)O3)[C@H]21 [lovastatin] | Inhibition of Ras farnesylation in vivo has been demonstrated
CC[C@H](C)C(=O)O[C@H]1CCC=C2C=C[C@H](C)[C@H](CC[C@@H]3C[C@@H](O)CC(=O)O3)[C@H]21 [compactin] | Inhibition of Ras farnesylation in vivo has been demonstrated

Test system: HMG-CoA reductase
Assay: not given
Settings: cited from earlier work

Compound | Inhibition of HMG-CoA reductase
CC[C@H](C)C(=O)O[C@H]1C[C@@H](C)C=C2C=C[C@H](C)[C@H](CC[C@@H]3C[C@@H](O)CC(=O)O3)[C@H]21 [lovastatin] | inhibit HMG-CoA reductase
CC[C@H](C)C(=O)O[C@H]1CCC=C2C=C[C@H](C)[C@H](CC[C@@H]3C[C@@H](O)CC(=O)O3)[C@H]21 [compactin] | inhibit HMG-CoA reductase
